Laboratory results from US20240374557A1, “BETA ADRENERGIC RECEPTOR COMPOSITIONS AND METHODS OF USE THEREOF” (THE BOARD OF REGENTS OF THE UNIVERSITY OF TEXAS SYSTEM, priority 2021, published 2024).

Experiments:
[1] = system: C57BL/6N mice on 42% high fat diet; details: 4 weeks, compared to placebo; mirabegron 8 mg/kg daily, atenolol 60 mg/kg per day
Method: (§1) In brief, three cohorts of male C57BL/6N mice, including a total of 100 mice, were used in these studies. Five-week-old mice were placed on a 42% high fat diet for 4 weeks. The treatments were provided for 4 weeks, during which time mice were maintained on the 42% high fat diet.
(§2) Mirabegron, an ADRB3 agonist, was administered at an 8 mg/kg daily dose. Atenolol is an ADRB1 antagonist and was administered to the mice at, on average, 60 mg/kg per day. Mirabegron or its buffer (5% PEG 400; placebo) were administered to the mice daily by gavage for 4 weeks. Mice were also given ad libitum access to a water bottle or a water bottle containing atenolol. […] Oral glucose tolerance testing was performed on overnight fasted mice administered 5 μL 60% glucose solution per g BW using a gavage tube; blood glucose levels were determined with a glucometer using blood from tail nicks at times 0, 15, 30, 60 and 120 minutes. Blood pressure measurements were obtained using a CODA-HT8 High Throughput Noninvasive Blood Pressure system with 8 activated channels for use with mice and rats from Kent Scientific. Methods and statistical analysis were performed as described above.

[2] = system: C57BL/6N mice on 42% high fat diet; experiment: 4-week treatment of high fat diet fed mice: body weight, body composition, cholesterol, oral glucose tolerance; format: in vivo; details: compared to placebo
Method: as §1, §2

[3] = system: Ad-Adrb1KO mice and littermate controls; experiment: Acute CL-316243 injection: body weight, blood glucose, BAT mass and BAT histology; format: in vivo
Method: Physiological relevance of crosstalk between ADRB1 and ADRB3 in adipocytes was assessed. […] Four hours after CL-316243 injection, mice were sacrificed and BAT depots were dissected.
Treatment with CL 316, 243.
Histology. […] Samples were then dehydrated, embedded in paraffin, and cut into […] sections. Sections were stained with hematoxylin and eosin (H&E) to perform general histology. All pictures were taken at a magnification of 20× on a Zeiss Axioskop 2 microscope connected to a digital camera (AxioCam; Zeiss, Thornwood, NY). Only the sharpness, contrast, and brightness were adjusted.

[4] = system: Ad-Adrb1KO mice and littermate controls; experiment: Co-administration of CL-316243 with insulin or glucose: blood glucose, plasma insulin, NEFA; details: for increase in plasma insulin levels: CL-316243 0.1 mg/kg co-administered with glucose, 30 minutes after vs before
Method: (§3) Treatment with CL 316, 243. Mice were fasted for 2 hours (0800-1000) and then given an injection of the ADRB3 agonist CL 316,243 (“CL”, 0.001-1 mg/kg) or vehicle (saline). In some cohorts, human recombinant insulin (Eli Lilly) or D-glucose (Sigma 49163-100ML) was co-administrated with CL.
Evaluation of insulin and NEFA levels. Blood from tail vein was collected before and 30 minutes after co-administration of CL with D-glucose into EDTA tubes. Plasma was isolated by centrifugation (4000 g×10 minutes at 4° C.). Plasma insulin (Mouse Ultrasensitive Insulin ELISA, ALPCO, 80-INSMSU-E01) and NEFA (FUJIFILM Wako Diagnostics-NEFA Reagent, 999-34691, 995-34791, 991-34891, 993-35191) levels were measured following manufacturer recommendations.

ADRB3 = details: cited from earlier work
[5] = system: Ad-Adrb1KO mice and littermate controls; experiment: Blood glucose over 60 minutes after CL-316243 dose range; details: for reducing glycemia: 0.001 mg/kg
Method: Tail vein blood glucose levels were then monitored using a glucometer (Bayer's Contour Blood Glucose Monitoring System.
as §3

[6] = system: Adrb1, Ppargc1a and Ucp1 mRNA expression in eWAT, iWAT and BAT; experiment: Quantitative real-time PCR of adipose depots after CL-316243 injection; format: in vivo, mice; details: CL-316243 0.1 mg/kg
Method: Quantitative real-time PCR. […] Total mRNA was isolated from eWAT, iWAT and interscapular BAT using the Aurum™ Total RNA Fatty and Fibrous Tissue Kit (Bio-Rad, 732-6830). RNA concentration was estimated from absorbance at 260 nm. cDNA synthesis was performed using the iScript Advanced cDNA Synthesis Kit (Bio-Rad, 172-5038). mRNA extraction and cDNA synthesis were performed following the manufacturer's instructions. cDNA was diluted in DNase-free water before quantification by real-time PCR. Relative quantification of gene expression was performed on diluted cDNA in duplicate samples using a CFX384 Touch™ real-time PCR (Bio-Rad). Fold differences in targeted mRNA expression were calculated using the 2-delta cycle threshold method and data were normalized to beta-microglobulin (B2m) expression. TaqMan gene expression assays for Adrb1 (Mm00431701_s1), B2m (Mm00437762_m1), Ppargc1a (Mm01208835_m1), and Ucp1 (Mm01244861_m1) were purchased from ThermoFisher Scientific.

[7] = 4 weeks, mirabegron 8 mg/kg daily gavage, atenolol 60 mg/kg per day in water
[8] = CL-316243 0.1 mg/kg, Ad-Adrb1KO mice
[9] = every adipose depot, independent of the genotype

Nc1nc(CC(=O)Nc2ccc(CCNC[C@H](O)c3ccccc3)cc2)cs1 [mirabegron]
diastolic blood pressure (DBP) [1]: elevated
mean arterial blood pressure (MBP) [1]: elevated
systolic blood pressure (SBP) [1]: elevated
LDL cholesterol [2, 7]: significant decreases
epididymal fat mass [2, 7]: significant decreases
total body weight [2, 7]: significant decreases
total cholesterol [2, 7]: significant decreases
total fat mass [2, 7]: significant decreases
glucose tolerance (blood glucose area under the curve) ([2]; oral glucose tolerance test after 4 weeks): significant improvements

C[C@H](Cc1ccc2c(c1)OC(C(=O)[O-])(C(=O)[O-])O2)NC[C@H](O)c1cccc(Cl)c1.[Na+].[Na+] [CL-316243, 5-[(2R)-2-[[(2R)-2-(3-Chlorophenyl)-2-hydroxyethyl]amino]propyl]-1,3-benzodioxole-2,2-dicarboxylic acid disodium salt]
BAT mass [3, 8]: comparable to CL-316243-treated littermates
CL-316243-induced mobilization of intracellular triglycerides in BAT [3, 8]: markedly improved
lipid droplets in H&E-stained BAT ([3]; CL-316243 0.1 mg/kg, mice lacking Adrb1 in adipocytes): near-complete depletion
weight of the mice ([3]; acute CL-316243 0.1 mg/kg, Ad-Adrb1KO mice and littermate controls): did not significantly change
efficiency to reduce blood glucose levels (treatment x genotype) ([3]; acute CL-316243 0.1 mg/kg, Ad-Adrb1KO vs littermate controls): significant interaction
increase in plasma insulin levels ([4]; Ad-Adrb1KO mice): 43 fold
increase in plasma insulin levels ([4]; littermate controls): 12 fold
glucose clearance ([4]; CL-316243 0.1 mg/kg co-administrated with glucose, Ad-Adrb1KO mice): drastically improved
insulin sensitivity ([4]; CL-316243 0.1 mg/kg in combination with insulin, Ad-Adrb1KO mice compared to control littermates): slight but significant improvement
plasma NEFA levels between Ad-Adrb1KO mice and littermate controls ([4]; CL-316243 co-administrated with glucose): no difference
selectivity for ADRB3 over ADRB1 and ADRB2 (ADRB3): over 10000 fold
EC50 (ADRB3; read-out: EC50 (ADRB3 agonist)): 3 nM
reducing glycemia ([5]; Ad-Adrb1KO mice): still effective
reducing glycemia ([5]; littermate controls): not littermate controls
blood glucose ([5]; both genotypes, even at low dose of 0.01 mg/kg, 60-minute period): glucose lowering effect
Adrb1 mRNA expression (significantly reduced or not) ([6]; BAT, littermate controls): not
Adrb1 mRNA expression ([6]; eWAT, littermate controls): significantly reduced
Ppargc1a mRNA expression [6, 9]: increase
Ucp1 mRNA expression [6, 9]: increase
Adrb1 mRNA expression (significantly reduced or not) ([6]; iWAT, littermate controls): not in iWAT
